Data on 33 compounds can be found in ChEMBL document CHEMBL2401706, “An atom economic synthesis and AChE inhibitory activity of novel dispiro 7-aryltetrahydro-1H-pyrrolo[1,2-c][1,3]thiazole and 4-aryloctahydroindolizine N-methylpiperidin-4-one hybrid heterocycles” (Eur J Med Chem, 2013).

This assay concerns the target Acetylcholinesterase (Electrophorus electricus, UniProt O42275). Kind of assay: Inhibition of electric eel AChE after 30 mins by Ellman's method. A general note: DTNB colorimetry detects thiols as they appear.

A word on the IC50: it is the concentration at which inhibition is half-maximal. Read a high IC50 as a need for much substance.

The structures appear in SMILES notation.

Acetylcholinesterase, sequence (O42275 whole entry): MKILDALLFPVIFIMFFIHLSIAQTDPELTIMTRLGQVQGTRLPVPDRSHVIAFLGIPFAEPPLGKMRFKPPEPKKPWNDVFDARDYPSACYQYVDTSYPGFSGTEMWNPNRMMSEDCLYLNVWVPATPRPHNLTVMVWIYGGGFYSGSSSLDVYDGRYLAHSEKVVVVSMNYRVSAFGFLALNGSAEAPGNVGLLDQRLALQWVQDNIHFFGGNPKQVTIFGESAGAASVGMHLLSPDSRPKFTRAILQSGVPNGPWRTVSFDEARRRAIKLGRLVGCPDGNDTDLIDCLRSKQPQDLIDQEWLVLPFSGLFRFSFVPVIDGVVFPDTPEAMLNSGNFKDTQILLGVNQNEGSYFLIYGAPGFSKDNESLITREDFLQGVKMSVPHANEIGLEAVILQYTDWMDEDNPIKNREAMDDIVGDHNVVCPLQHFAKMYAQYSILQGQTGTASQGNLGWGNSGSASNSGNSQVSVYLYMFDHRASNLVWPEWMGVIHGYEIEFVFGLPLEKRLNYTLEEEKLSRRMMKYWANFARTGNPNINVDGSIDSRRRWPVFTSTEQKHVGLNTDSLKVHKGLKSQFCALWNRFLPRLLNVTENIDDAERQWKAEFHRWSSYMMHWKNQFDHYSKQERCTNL

Compound `CN1C/C(=C\c2ccccc2Br)C(=O)[C@]2(C1)[C@@H](c1ccccc1Br)[C@@H]1CCCCN1[C@@]21C(=O)c2cccc3cccc1c23` came in with an IC50 of 38.3 µM.
As for `CN1C/C(=C\c2ccc([N+](=O)[O-])cc2)C(=O)[C@]2(C1)[C@@H](c1ccc([N+](=O)[O-])cc1)[C@@H]1CSCN1[C@@]21C(=O)c2cccc3cccc1c23`, the IC50 came to 4.56 µM.
For `CN1C/C(=C\c2ccc(Br)cc2)C(=O)[C@]2(C1)[C@@H](c1ccc(Br)cc1)[C@@H]1CSCN1[C@@]21C(=O)c2cccc3cccc1c23`, it took 20.3 µM to reach half-maximal inhibition (IC50).
As to `CN1C/C(=C\c2cccc(Cl)c2Cl)C(=O)[C@]2(C1)[C@@H](c1cccc(Cl)c1Cl)[C@@H]1CCCCN1[C@@]21C(=O)c2cccc3cccc1c23`, the IC50 came out at 24.2 µM.
Regarding `COc1ccc(/C=C2\CN(C)C[C@@]3(C2=O)[C@@H](c2ccc(OC)cc2)[C@@H]2CCCCN2[C@@]32C(=O)c3cccc4cccc2c34)cc1`, the IC50 stood at 22.3 µM.
As for `Cc1ccccc1/C=C1\CN(C)C[C@@]2(C1=O)[C@@H](c1ccccc1C)[C@@H]1CCCCN1[C@@]21C(=O)c2cccc3cccc1c23`, 3.86 µM corresponded to half-maximal inhibition (IC50).
In turn, `CN1C/C(=C\c2cccc(F)c2)C(=O)[C@]2(C1)[C@@H](c1cccc(F)c1)[C@@H]1CSCN1[C@@]21C(=O)c2cccc3cccc1c23` had an IC50 of 11.2 µM.
As for `CN1C/C(=C\c2ccc(F)cc2)C(=O)[C@]2(C1)[C@@H](c1ccc(F)cc1)[C@@H]1CSCN1[C@@]21C(=O)c2cccc3cccc1c23`, the IC50 was 15.8 µM.
For `Cc1ccc(/C=C2\CN(C)C[C@@]3(C2=O)[C@@H](c2ccc(C)cc2)[C@@H]2CCCCN2[C@@]32C(=O)c3cccc4cccc2c34)cc1` the value was 2.24 µM.
Compound `CN1C/C(=C\c2cccc([N+](=O)[O-])c2)C(=O)[C@]2(C1)[C@@H](c1cccc([N+](=O)[O-])c1)[C@@H]1CSCN1[C@@]21C(=O)c2cccc3cccc1c23` registered an IC50 of 8.1 µM.
For the compound `CN1C/C(=C\c2ccc(Cl)cc2)C(=O)[C@]2(C1)[C@@H](c1ccc(Cl)cc1)[C@@H]1CSCN1[C@@]21C(=O)c2cccc3cccc1c23`, the IC50 was 11.1 µM.
`CN1C/C(=C\c2cccc(Cl)c2Cl)C(=O)[C@]2(C1)[C@@H](c1cccc(Cl)c1Cl)[C@@H]1CSCN1[C@@]21C(=O)c2cccc3cccc1c23` registered an IC50 of 19.1 µM.
Regarding `CN1C/C(=C\c2ccc(F)cc2)C(=O)[C@]2(C1)[C@@H](c1ccc(F)cc1)[C@@H]1CCCCN1[C@@]21C(=O)c2cccc3cccc1c23`, the IC50 worked out at 12.6 µM.
Take `CN1C/C(=C\c2ccccc2Cl)C(=O)[C@]2(C1)[C@@H](c1ccccc1Cl)[C@@H]1CCCCN1[C@@]21C(=O)c2cccc3cccc1c23`: the IC50 came to 21.3 µM.
As to `CN1C/C(=C\c2cccc3ccccc23)C(=O)[C@]2(C1)[C@@H](c1cccc3ccccc13)[C@@H]1CSCN1[C@@]21C(=O)c2cccc3cccc1c23`, half-maximal inhibition (IC50) required 9.48 µM.
`CN1C/C(=C\c2ccccc2F)C(=O)[C@]2(C1)[C@@H](c1ccccc1F)[C@@H]1CSCN1[C@@]21C(=O)c2cccc3cccc1c23` yielded a half-inhibitory concentration (IC50) of 12.6 µM.
Take `Cc1ccc(/C=C2\CN(C)C[C@@]3(C2=O)[C@@H](c2ccc(C)cc2)[C@@H]2CSCN2[C@@]32C(=O)c3cccc4cccc2c34)cc1`: the IC50 turned out to be 1.86 µM.
On to `CN1C/C(=C\c2ccc(Br)cc2)C(=O)[C@]2(C1)[C@@H](c1ccc(Br)cc1)[C@@H]1CCCCN1[C@@]21C(=O)c2cccc3cccc1c23`, for which the IC50 came out at 14.1 µM.
Take `CN1C/C(=C\c2ccc(Cl)cc2Cl)C(=O)[C@]2(C1)[C@@H](c1ccc(Cl)cc1Cl)[C@@H]1CSCN1[C@@]21C(=O)c2cccc3cccc1c23`: half-maximal inhibition (IC50) required 23.2 µM.
On to `CN1C/C(=C\c2cccc3ccccc23)C(=O)[C@]2(C1)[C@@H](c1cccc3ccccc13)[C@@H]1CCCCN1[C@@]21C(=O)c2cccc3cccc1c23`, for which the IC50 came to 3.34 µM.
Under `CN1C/C(=C\c2ccccc2)C(=O)[C@]2(C1)[C@@H](c1ccccc1)[C@@H]1CSCN1[C@@]21C(=O)c2cccc3cccc1c23` stands 16.5 µM.
`CN1C/C(=C\c2ccccc2F)C(=O)[C@]2(C1)[C@@H](c1ccccc1F)[C@@H]1CCCCN1[C@@]21C(=O)c2cccc3cccc1c23` displayed an IC50 of 34.2 µM.
The compound `CN1C/C(=C\c2cccc(F)c2)C(=O)[C@]2(C1)[C@@H](c1cccc(F)c1)[C@@H]1CCCCN1[C@@]21C(=O)c2cccc3cccc1c23` came in with an IC50 of 32.6 µM.
With `CN1C/C(=C\c2ccc(Cl)cc2)C(=O)[C@]2(C1)[C@@H](c1ccc(Cl)cc1)[C@@H]1CCCCN1[C@@]21C(=O)c2cccc3cccc1c23`, 11.6 µM corresponded to half-maximal inhibition (IC50).
Compound `CN1C/C(=C\c2cccc([N+](=O)[O-])c2)C(=O)[C@]2(C1)[C@@H](c1cccc([N+](=O)[O-])c1)[C@@H]1CCCCN1[C@@]21C(=O)c2cccc3cccc1c23` returned an IC50 of 25.1 µM.
`CN1C/C(=C\c2ccccc2)C(=O)[C@]2(C1)[C@@H](c1ccccc1)[C@@H]1CCCCN1[C@@]21C(=O)c2cccc3cccc1c23` displayed an IC50 of 18.3 µM.
Compound `Cc1ccccc1/C=C1\CN(C)C[C@@]2(C1=O)[C@@H](c1ccccc1C)[C@@H]1CSCN1[C@@]21C(=O)c2cccc3cccc1c23` had an IC50 of 6.28 µM.
For `COc1ccc(/C=C2\CN(C)C[C@@]3(C2=O)[C@@H](c2ccc(OC)cc2)[C@@H]2CSCN2[C@@]32C(=O)c3cccc4cccc2c34)cc1`, the IC50 was found to be 12.3 µM.
The compound `CN1C/C(=C\c2ccccc2Br)C(=O)[C@]2(C1)[C@@H](c1ccccc1Br)[C@@H]1CSCN1[C@@]21C(=O)c2cccc3cccc1c23` registered an IC50 of 10.1 µM.
As to `COc1ccccc1/C=C1\CN(C)C[C@@]2(C1=O)[C@@H](c1ccccc1OC)[C@@H]1CCCCN1[C@@]21C(=O)c2cccc3cccc1c23`, the midpoint of inhibition, the IC50, lay at 11.6 µM.
`CN1C/C(=C\c2ccc([N+](=O)[O-])cc2)C(=O)[C@]2(C1)[C@@H](c1ccc([N+](=O)[O-])cc1)[C@@H]1CCCCN1[C@@]21C(=O)c2cccc3cccc1c23` yielded an IC50 of 9.16 µM.
Take `CN1C/C(=C\c2ccc(Cl)cc2Cl)C(=O)[C@]2(C1)[C@@H](c1ccc(Cl)cc1Cl)[C@@H]1CCCCN1[C@@]21C(=O)c2cccc3cccc1c23`: the midpoint of inhibition, the IC50, lay at 17.3 µM.
As for `CN1C/C(=C\c2ccccc2Cl)C(=O)[C@]2(C1)[C@@H](c1ccccc1Cl)[C@@H]1CSCN1[C@@]21C(=O)c2cccc3cccc1c23`, the midpoint of inhibition, the IC50, lay at 12.2 µM.
